Experimental data reported in publication PMC9124820, “In vitro evaluation of fenfluramine and norfenfluramine as victims of drug interactions” (Pharmacology Research & Perspectives, 2022).

Tested on: other rCYP450s
Assay: Reaction phenotyping, other rCYP450s of the panel (not given)
Type: in vitro ADME, human
Procedure: For FFA and nFFA reaction phenotyping experiments, LC‐MS/MS experiments were performed using an API 4000 QTRAP or QTRAP 5500 mass spectrometer (SCIEX) with positive electrospray ionization. Chromatography was performed using an Atlantis dC18 analytical column (100 × 2.1 mm, 5 µm; Waters Corporation). Mobile phases were 0.2% v/v formic acid in water and 0.2% v/v formic acid in methanol. FFA and nFFA were eluted at a flow rate of 0.5 mL/min with a linear gradient of 40%−95% methanol from 0.20−2.1 min. The mass transitions monitored were 232.0>109.0 for FFA, 204.0>159.0 for nFFA, 348.0>330.0 for 1’‐hydroxymidazolam‐d4 internal standard (FFA reaction phenotyping), and 262.0>244.0 for hydroxybupropion‐d6 internal standard (nFFA reaction phenotyping). Analyst Instrument Control and Data Processing software (v. 1.6.1) was used for collecting and integrating data (SCIEX). Calibration curves ranging from 1.25 µM−0.01 µM were used to quantify nFFA. Relative quantitation was used to approximate the amount of FFA test material used.
Methods used to evaluate the role of CYP450s in the metabolism of FFA have been described.[22], [23], [24] To determine whether FFA and nFFA were substrates for specific CYP450s, either FFA (1 and 10 μM) or nFFA (0.1 and 1 μM) was incubated via a Tecan Liquid Handling System (Tecan Life Sciences, Männedorf, Switzerland) in duplicate with 25 pmol of rCYP1A2, rCYP2B6, rCYP2C8, rCYP2C9, rCYP2C19, rCYP2D6, or rCYP3A4, and incubation at 37°C. The 200‐μL incubation mixtures contained potassium phosphate buffer (50 mM, pH 7.4), MgCl2 (3 mM), and EDTA (1 mM, pH 7.4), and an NADPH‐generating system. Incubations of FFA with control bactosomes and membranes containing human NADPH‐CYP450 oxidoreductase, but not human CYP450 (reductase control), served as negative controls. FFA or nFFA was added to the incubation mixtures in water (1% v/v). […] Supernatant fractions were analyzed by LC‐MS/MS.

Compound | FFA loss (1 μM FFA, rCYP450s other than rCYP2D6, rCYP2C19, rCYP1A2) | substrate loss (10 μM FFA, rCYP450s other than rCYP2D6, rCYP2C19, rCYP1A2, rCYP2B6) | contribution to nFFA metabolism (nFFA 0.1 μM and 1 μM, enzymes other than rCYP1A2, rCYP2B6, rCYP2C19, rCYP2D6)
CCNC(C)Cc1cccc(C(F)(F)F)c1 (racemic) [FFA, (RS)‐ethyl (α‐methyl‐3‐trifluoromethylphenethyl)amine] | < 10% | < 15% | –
CC(N)Cc1cccc(C(F)(F)F)c1.Cl (stereo not drawn) [nFFA, 1‐(3‐(trifluoromethyl)phenyl)propan‐2‐amine hydrochloride] | – | – | smaller contributions
